Patent US9113629B2, “4-amino-6-(4-substituted-phenyl)-picolinates and 6-amino-2-(4-substituted-phenyl)-pyrimidine-4-carboxylates and their use as herbicides” (DOW AGROSCIENCES LLC, priority 2013, dated 2015)

Test system: Key Broadleaf Weed and Crop Species
Assay: Post-emergent Test II herbicidal activity (Table 5)
Assay type: in vivo
Details: post-emergence, 336 h; ABUTH: velvetleaf (Abutilon theophrasti); 70 g ai/ha; post-emergent; 14 days after application; read-out: Visual Growth Reduction (%) 14 Days After Application ABUTH
Outline: (§1)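 Spray rates: a highest rate plus ½×, ¼×, ⅛×, 1/16×, all delivered at 187 L/ha to plants at the first–second true leaf stage. Readout is a visual percent injury score at 14 d, where 100 means complete kill.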

| SMILES | pest or weed control at 70 g/ha |
| --- | --- |
| COC(=O)c1nc(-c2ccc(I)c(F)c2)nc(N)c1OC [Compound 27, Methyl 6-amino-2-(3-fluoro-4-iodophenyl)-5-methoxypyrimidine-4-carboxylate] | 60 to 74% |

Same assay, conditions: post-emergence, 336 h; ABUTH: velvetleaf (Abutilon theophrasti); 140 g ai/ha; post-emergent; 14 days after application; read-out: Visual Growth Reduction (%) 14 Days After Application ABUTH

| SMILES | pest or weed control at 140 g/ha |
| --- | --- |
| COC(=O)c1nc(-c2ccc(I)c(F)c2)nc(N)c1OC [Compound 27, Methyl 6-amino-2-(3-fluoro-4-iodophenyl)-5-methoxypyrimidine-4-carboxylate] | 75 to 84% |

Same assay, conditions: post-emergence, 336 h; AMARE: redroot pigweed (Amaranthus retroflexus); 70 g ai/ha; post-emergent; 14 days after application; read-out: Visual Growth Reduction (%) 14 Days After Application AMARE

| SMILES | pest or weed control at 70 g/ha |
| --- | --- |
| COC(=O)c1nc(-c2ccc(I)c(F)c2)nc(N)c1OC [Compound 27, Methyl 6-amino-2-(3-fluoro-4-iodophenyl)-5-methoxypyrimidine-4-carboxylate] | 60 to 74% |

Same assay, conditions: post-emergence, 336 h; AMARE: redroot pigweed (Amaranthus retroflexus); 140 g ai/ha; post-emergent; 14 days after application; read-out: Visual Growth Reduction (%) 14 Days After Application AMARE

| SMILES | pest or weed control at 140 g/ha |
| --- | --- |
| COC(=O)c1nc(-c2ccc(I)c(F)c2)nc(N)c1OC [Compound 27, Methyl 6-amino-2-(3-fluoro-4-iodophenyl)-5-methoxypyrimidine-4-carboxylate] | 75 to 84% |

Same assay, conditions: post-emergence, 336 h; BRSNN: oilseed-rape, canola (Brassica napus); 70 g ai/ha; post-emergent; 14 days after application; read-out: Visual Growth Reduction (%) 14 Days After Application BRSNN

| SMILES | pest or weed control at 70 g/ha |
| --- | --- |
| COC(=O)c1nc(-c2ccc(I)c(F)c2)nc(N)c1OC [Compound 27, Methyl 6-amino-2-(3-fluoro-4-iodophenyl)-5-methoxypyrimidine-4-carboxylate] | 60 to 74% |

Same assay, conditions: post-emergence, 336 h; BRSNN: oilseed-rape, canola (Brassica napus); 140 g ai/ha; post-emergent; 14 days after application; read-out: Visual Growth Reduction (%) 14 Days After Application BRSNN

| SMILES | pest or weed control at 140 g/ha |
| --- | --- |
| COC(=O)c1nc(-c2ccc(I)c(F)c2)nc(N)c1OC [Compound 27, Methyl 6-amino-2-(3-fluoro-4-iodophenyl)-5-methoxypyrimidine-4-carboxylate] | 60 to 74% |

Same assay, conditions: post-emergence, 336 h; CHEAL: lambsquarters (Chenopodium album); 70 g ai/ha; post-emergent; 14 days after application; read-out: Visual Growth Reduction (%) 14 Days After Application CHEAL

| SMILES | pest or weed control at 70 g/ha |
| --- | --- |
| COC(=O)c1nc(-c2ccc(I)c(F)c2)nc(N)c1OC [Compound 27, Methyl 6-amino-2-(3-fluoro-4-iodophenyl)-5-methoxypyrimidine-4-carboxylate] | 85 to 94% |

Same assay, conditions: post-emergence, 336 h; CHEAL: lambsquarters (Chenopodium album); 140 g ai/ha; post-emergent; 14 days after application; read-out: Visual Growth Reduction (%) 14 Days After Application CHEAL

| SMILES | pest or weed control at 140 g/ha |
| --- | --- |
| COC(=O)c1nc(-c2ccc(I)c(F)c2)nc(N)c1OC [Compound 27, Methyl 6-amino-2-(3-fluoro-4-iodophenyl)-5-methoxypyrimidine-4-carboxylate] | 85 to 94% |

Same assay, conditions: post-emergence, 336 h; EPHHL: wild poinsettia (Euphorbia heterophylla); 70 g ai/ha; post-emergent; 14 days after application; read-out: Visual Growth Reduction (%) 14 Days After Application EPHHL

| SMILES | pest or weed control at 70 g/ha |
| --- | --- |
| COC(=O)c1nc(-c2ccc(I)c(F)c2)nc(N)c1OC [Compound 27, Methyl 6-amino-2-(3-fluoro-4-iodophenyl)-5-methoxypyrimidine-4-carboxylate] | 95 to 100% |

Same assay, conditions: post-emergence, 336 h; EPHHL: wild poinsettia (Euphorbia heterophylla); 140 g ai/ha; post-emergent; 14 days after application; read-out: Visual Growth Reduction (%) 14 Days After Application EPHHL

| SMILES | pest or weed control at 140 g/ha |
| --- | --- |
| COC(=O)c1nc(-c2ccc(I)c(F)c2)nc(N)c1OC [Compound 27, Methyl 6-amino-2-(3-fluoro-4-iodophenyl)-5-methoxypyrimidine-4-carboxylate] | 95 to 100% |

Same assay, conditions: post-emergence, 336 h; HELAN: sunflower (Helianthus annuus); 70 g ai/ha; post-emergent; 14 days after application; read-out: Visual Growth Reduction (%) 14 Days After Application HELAN

| SMILES | pest or weed control at 70 g/ha |
| --- | --- |
| COC(=O)c1nc(-c2ccc(I)c(F)c2)nc(N)c1OC [Compound 27, Methyl 6-amino-2-(3-fluoro-4-iodophenyl)-5-methoxypyrimidine-4-carboxylate] | 85 to 94% |

Same assay, conditions: post-emergence, 336 h; HELAN: sunflower (Helianthus annuus); 140 g ai/ha; post-emergent; 14 days after application; read-out: Visual Growth Reduction (%) 14 Days After Application HELAN

| SMILES | pest or weed control at 140 g/ha |
| --- | --- |
| COC(=O)c1nc(-c2ccc(I)c(F)c2)nc(N)c1OC [Compound 27, Methyl 6-amino-2-(3-fluoro-4-iodophenyl)-5-methoxypyrimidine-4-carboxylate] | 85 to 94% |

Same assay, conditions: post-emergence, 336 h; VIOTR: wild pansy (Viola tricolor); 70 g ai/ha; post-emergent; 14 days after application; read-out: Visual Growth Reduction (%) 14 Days After Application VIOTR

| SMILES | pest or weed control at 70 g/ha |
| --- | --- |
| COC(=O)c1nc(-c2ccc(I)c(F)c2)nc(N)c1OC [Compound 27, Methyl 6-amino-2-(3-fluoro-4-iodophenyl)-5-methoxypyrimidine-4-carboxylate] | 95 to 100% |

Same assay, conditions: post-emergence, 336 h; VIOTR: wild pansy (Viola tricolor); 140 g ai/ha; post-emergent; 14 days after application; read-out: Visual Growth Reduction (%) 14 Days After Application VIOTR

| SMILES | pest or weed control at 140 g/ha |
| --- | --- |
| COC(=O)c1nc(-c2ccc(I)c(F)c2)nc(N)c1OC [Compound 27, Methyl 6-amino-2-(3-fluoro-4-iodophenyl)-5-methoxypyrimidine-4-carboxylate] | 95 to 100% |

Test system: Key Grass and Sedge Weeds as well as Grass Crops
Assay: Post-emergent Test II herbicidal activity (Table 6)
Assay type: in vivo
Details: Triticum aestivum, post-emergence, 336 h, TRZSS (wheat), application rate 70 g ai/ha, read-out: Visual Growth Reduction (%) 14 Days After Application, TRZSS
Outline: as §1

| SMILES | pest or weed control at 70 g/ha |
| --- | --- |
| COC(=O)c1nc(-c2ccc(I)c(F)c2)nc(N)c1OC [Compound 27, Methyl 6-amino-2-(3-fluoro-4-iodophenyl)-5-methoxypyrimidine-4-carboxylate] | 45 to 59% |

Same assay, conditions: Triticum aestivum, post-emergence, 336 h, TRZSS (wheat), application rate 140 g ai/ha, read-out: Visual Growth Reduction (%) 14 Days After Application, TRZSS

| SMILES | pest or weed control at 140 g/ha |
| --- | --- |
| COC(=O)c1nc(-c2ccc(I)c(F)c2)nc(N)c1OC [Compound 27, Methyl 6-amino-2-(3-fluoro-4-iodophenyl)-5-methoxypyrimidine-4-carboxylate] | 45 to 59% |

Same assay, conditions: post-emergence, 336 h, CYPES: yellow nutsedge (Cyperus esculentus), application rate 70 g ai/ha, read-out: Visual Growth Reduction (%) 14 Days After Application, CYPES

| SMILES | pest or weed control at 70 g/ha |
| --- | --- |
| COC(=O)c1nc(-c2ccc(I)c(F)c2)nc(N)c1OC [Compound 27, Methyl 6-amino-2-(3-fluoro-4-iodophenyl)-5-methoxypyrimidine-4-carboxylate] | 0 to 29% |

Same assay, conditions: post-emergence, 336 h, CYPES: yellow nutsedge (Cyperus esculentus), application rate 140 g ai/ha, read-out: Visual Growth Reduction (%) 14 Days After Application, CYPES

| SMILES | pest or weed control at 140 g/ha |
| --- | --- |
| COC(=O)c1nc(-c2ccc(I)c(F)c2)nc(N)c1OC [Compound 27, Methyl 6-amino-2-(3-fluoro-4-iodophenyl)-5-methoxypyrimidine-4-carboxylate] | 95 to 100% |

Same assay, conditions: post-emergence, 336 h, DIGSA: crabgrass (Digitaria sanguinalis), application rate 70 g ai/ha, read-out: Visual Growth Reduction (%) 14 Days After Application, DIGSA

| SMILES | pest or weed control at 70 g/ha |
| --- | --- |
| COC(=O)c1nc(-c2ccc(I)c(F)c2)nc(N)c1OC [Compound 27, Methyl 6-amino-2-(3-fluoro-4-iodophenyl)-5-methoxypyrimidine-4-carboxylate] | 0 to 29% |

Same assay, conditions: post-emergence, 336 h, DIGSA: crabgrass (Digitaria sanguinalis), application rate 140 g ai/ha, read-out: Visual Growth Reduction (%) 14 Days After Application, DIGSA

| SMILES | pest or weed control at 140 g/ha |
| --- | --- |
| COC(=O)c1nc(-c2ccc(I)c(F)c2)nc(N)c1OC [Compound 27, Methyl 6-amino-2-(3-fluoro-4-iodophenyl)-5-methoxypyrimidine-4-carboxylate] | 0 to 29% |

Same assay, conditions: post-emergence, 336 h, ECHCG: barnyardgrass (Echinochloa crus-galli), application rate 70 g ai/ha, read-out: Visual Growth Reduction (%) 14 Days After Application, ECHCG

| SMILES | pest or weed control at 70 g/ha |
| --- | --- |
| COC(=O)c1nc(-c2ccc(I)c(F)c2)nc(N)c1OC [Compound 27, Methyl 6-amino-2-(3-fluoro-4-iodophenyl)-5-methoxypyrimidine-4-carboxylate] | 0 to 29% |

Same assay, conditions: post-emergence, 336 h, ECHCG: barnyardgrass (Echinochloa crus-galli), application rate 140 g ai/ha, read-out: Visual Growth Reduction (%) 14 Days After Application, ECHCG

| SMILES | pest or weed control at 140 g/ha |
| --- | --- |
| COC(=O)c1nc(-c2ccc(I)c(F)c2)nc(N)c1OC [Compound 27, Methyl 6-amino-2-(3-fluoro-4-iodophenyl)-5-methoxypyrimidine-4-carboxylate] | 0 to 29% |

Same assay, conditions: post-emergence, 336 h, ORYSA: rice (Oryza sativa), application rate 70 g ai/ha, read-out: Visual Growth Reduction (%) 14 Days After Application, ORYSA

| SMILES | pest or weed control at 70 g/ha |
| --- | --- |
| COC(=O)c1nc(-c2ccc(I)c(F)c2)nc(N)c1OC [Compound 27, Methyl 6-amino-2-(3-fluoro-4-iodophenyl)-5-methoxypyrimidine-4-carboxylate] | 0 to 29% |

Same assay, conditions: post-emergence, 336 h, ORYSA: rice (Oryza sativa), application rate 140 g ai/ha, read-out: Visual Growth Reduction (%) 14 Days After Application, ORYSA

| SMILES | pest or weed control at 140 g/ha |
| --- | --- |
| COC(=O)c1nc(-c2ccc(I)c(F)c2)nc(N)c1OC [Compound 27, Methyl 6-amino-2-(3-fluoro-4-iodophenyl)-5-methoxypyrimidine-4-carboxylate] | 0 to 29% |

Same assay, conditions: post-emergence, 336 h, SETFA: giant foxtail (Setaria faberi), application rate 70 g ai/ha, read-out: Visual Growth Reduction (%) 14 Days After Application, SETFA

| SMILES | pest or weed control at 70 g/ha |
| --- | --- |
| COC(=O)c1nc(-c2ccc(I)c(F)c2)nc(N)c1OC [Compound 27, Methyl 6-amino-2-(3-fluoro-4-iodophenyl)-5-methoxypyrimidine-4-carboxylate] | 0 to 29% |

Same assay, conditions: post-emergence, 336 h, SETFA: giant foxtail (Setaria faberi), application rate 140 g ai/ha, read-out: Visual Growth Reduction (%) 14 Days After Application, SETFA

| SMILES | pest or weed control at 140 g/ha |
| --- | --- |
| COC(=O)c1nc(-c2ccc(I)c(F)c2)nc(N)c1OC [Compound 27, Methyl 6-amino-2-(3-fluoro-4-iodophenyl)-5-methoxypyrimidine-4-carboxylate] | 0 to 29% |

Same assay, conditions: post-emergence, 336 h, SORVU: grain sorghum (Sorghum vulgare), application rate 70 g ai/ha, read-out: Visual Growth Reduction (%) 14 Days After Application, SORVU

| SMILES | pest or weed control at 70 g/ha |
| --- | --- |
| COC(=O)c1nc(-c2ccc(I)c(F)c2)nc(N)c1OC [Compound 27, Methyl 6-amino-2-(3-fluoro-4-iodophenyl)-5-methoxypyrimidine-4-carboxylate] | 0 to 29% |

Same assay, conditions: post-emergence, 336 h, SORVU: grain sorghum (Sorghum vulgare), application rate 140 g ai/ha, read-out: Visual Growth Reduction (%) 14 Days After Application, SORVU

| SMILES | pest or weed control at 140 g/ha |
| --- | --- |
| COC(=O)c1nc(-c2ccc(I)c(F)c2)nc(N)c1OC [Compound 27, Methyl 6-amino-2-(3-fluoro-4-iodophenyl)-5-methoxypyrimidine-4-carboxylate] | 30 to 44% |

Same assay, conditions: post-emergence, 336 h, ZEAMX: maize, corn (Zea mays), application rate 70 g ai/ha, read-out: Visual Growth Reduction (%) 14 Days After Application, ZEAMX

| SMILES | pest or weed control at 70 g/ha |
| --- | --- |
| COC(=O)c1nc(-c2ccc(I)c(F)c2)nc(N)c1OC [Compound 27, Methyl 6-amino-2-(3-fluoro-4-iodophenyl)-5-methoxypyrimidine-4-carboxylate] | 0 to 29% |

Same assay, conditions: post-emergence, 336 h, ZEAMX: maize, corn (Zea mays), application rate 140 g ai/ha, read-out: Visual Growth Reduction (%) 14 Days After Application, ZEAMX

| SMILES | pest or weed control at 140 g/ha |
| --- | --- |
| COC(=O)c1nc(-c2ccc(I)c(F)c2)nc(N)c1OC [Compound 27, Methyl 6-amino-2-(3-fluoro-4-iodophenyl)-5-methoxypyrimidine-4-carboxylate] | 0 to 29% |
